In ChEMBL document CHEMBL4725370, “Discovery of Proteolysis-Targeting Chimera Molecules that Selectively Degrade the IRAK3 Pseudokinase” (J Med Chem, 2020):
pIC50: −log10 of the molar value.

Assays:
[1] = molecular target: T1, Interleukin-1 receptor-associated kinase 4 (Homo sapiens, UniProt Q9NWZ3); experiment: Inhibition of recombinant human full-length His-tagged IRAK4 expressed in baculovirus expression system using 5-FAM-IPTSPITTTYFFFKKK-COOH as substrate measured after 240 mins by mobility shift assay
T1 sequence (Q9NWZ3 whole entry): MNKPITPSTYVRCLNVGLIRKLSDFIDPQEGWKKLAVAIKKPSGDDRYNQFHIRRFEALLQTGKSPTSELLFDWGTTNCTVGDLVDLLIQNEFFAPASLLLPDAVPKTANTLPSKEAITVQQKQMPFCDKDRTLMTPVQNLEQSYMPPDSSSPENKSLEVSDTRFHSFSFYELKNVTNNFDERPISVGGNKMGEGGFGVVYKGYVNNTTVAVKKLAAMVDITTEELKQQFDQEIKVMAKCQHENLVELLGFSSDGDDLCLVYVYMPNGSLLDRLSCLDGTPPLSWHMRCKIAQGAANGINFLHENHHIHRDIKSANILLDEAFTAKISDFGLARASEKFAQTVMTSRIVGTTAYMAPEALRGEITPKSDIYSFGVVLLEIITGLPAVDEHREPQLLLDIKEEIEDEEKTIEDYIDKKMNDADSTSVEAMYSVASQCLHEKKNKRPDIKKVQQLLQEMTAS

[2] = molecular target: T2, von Hippel-Lindau disease tumor suppressor/Interleukin-1 receptor-associated kinase 3 (Homo sapiens) (UniProt Q9Y616+P40337); experiment: Protac activity at VHL/IRAK3 in LPS-induced human THP1 cells assessed as induction of IRAK3 degradation at 10 uM by Western blot analysis relative to control; assay type: cell-based; conditions: THP-1
T2 sequence (P40337 whole entry, looked up, one chain of several): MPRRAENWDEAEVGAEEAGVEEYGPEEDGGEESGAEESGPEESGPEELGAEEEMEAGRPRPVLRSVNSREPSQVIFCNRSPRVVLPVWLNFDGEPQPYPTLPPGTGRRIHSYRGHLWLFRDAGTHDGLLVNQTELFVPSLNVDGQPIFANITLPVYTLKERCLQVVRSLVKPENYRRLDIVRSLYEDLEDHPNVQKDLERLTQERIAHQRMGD

[3] = molecular target: T2, von Hippel-Lindau disease tumor suppressor/Interleukin-1 receptor-associated kinase 3 (Homo sapiens); experiment: Protac activity at VHL/IRAK3 in LPS-induced human THP1 cells assessed as induction of IRAK3 degradation at 1 uM by Western blot analysis relative to control; assay type: cell-based; conditions: THP-1
[4] = Octanol/buffer partition coefficient, log D of the compound at pH 7.4 by shake-flask method; assay type: physicochemical
[5] = molecular target: T3, Interleukin-1 receptor-associated kinase 3 (Homo sapiens, UniProt Q9Y616); experiment: Inhibition of kinase tracer 236 binding to recombinant human full-length GST-tagged IRAK3 expressed in insect cells by Lanthascreen Eu kinase binding assay
T3 sequence (Q9Y616 whole entry): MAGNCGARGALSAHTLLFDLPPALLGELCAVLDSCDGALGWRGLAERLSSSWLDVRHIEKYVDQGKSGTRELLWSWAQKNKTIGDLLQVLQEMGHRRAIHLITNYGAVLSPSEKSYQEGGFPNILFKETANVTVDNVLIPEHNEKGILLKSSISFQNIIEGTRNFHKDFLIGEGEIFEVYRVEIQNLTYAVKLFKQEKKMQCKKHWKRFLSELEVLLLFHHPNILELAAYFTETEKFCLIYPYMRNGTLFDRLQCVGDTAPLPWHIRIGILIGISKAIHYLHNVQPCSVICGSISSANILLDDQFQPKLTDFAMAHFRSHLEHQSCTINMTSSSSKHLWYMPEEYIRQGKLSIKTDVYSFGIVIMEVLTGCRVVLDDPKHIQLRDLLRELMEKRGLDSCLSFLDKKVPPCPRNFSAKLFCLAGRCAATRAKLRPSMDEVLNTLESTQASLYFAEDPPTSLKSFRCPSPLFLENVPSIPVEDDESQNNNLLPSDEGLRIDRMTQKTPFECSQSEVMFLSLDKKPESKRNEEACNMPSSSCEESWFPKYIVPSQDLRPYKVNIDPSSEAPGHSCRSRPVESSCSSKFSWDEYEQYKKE

[6] = molecular target: T4, Protein cereblon/Interleukin-1 receptor-associated kinase 3 (Homo sapiens, UniProt Q9Y616+Q96SW2); experiment: Protac activity at CRBN/IRAK3 in LPS-induced human THP1 cells assessed as induction of IRAK3 degradation at 10 uM by Western blot analysis relative to control; assay type: cell-based; conditions: THP-1
Target sequence in this assay (Q96SW2 whole entry, looked up, one chain of several): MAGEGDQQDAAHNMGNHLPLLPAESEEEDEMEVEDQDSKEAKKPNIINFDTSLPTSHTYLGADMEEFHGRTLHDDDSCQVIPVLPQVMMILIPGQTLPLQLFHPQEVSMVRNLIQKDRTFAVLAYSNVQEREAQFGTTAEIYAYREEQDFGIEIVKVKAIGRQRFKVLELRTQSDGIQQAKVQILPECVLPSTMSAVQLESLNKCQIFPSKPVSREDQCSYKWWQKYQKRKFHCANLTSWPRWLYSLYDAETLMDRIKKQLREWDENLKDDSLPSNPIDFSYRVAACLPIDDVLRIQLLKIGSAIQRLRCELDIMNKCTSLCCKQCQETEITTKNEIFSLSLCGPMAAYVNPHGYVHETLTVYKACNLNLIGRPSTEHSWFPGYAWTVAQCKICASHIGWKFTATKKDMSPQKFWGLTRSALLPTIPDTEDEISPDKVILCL

[7] = molecular target: T4, Protein cereblon/Interleukin-1 receptor-associated kinase 3; experiment: Protac activity at CRBN/IRAK3 in LPS-induced human THP1 cells assessed as induction of IRAK3 degradation at 1 uM by Western blot analysis relative to control; assay type: cell-based; conditions: THP-1
Target sequence in this assay (Q96SW2 whole entry, looked up, one chain of several): as above

[8] = molecular target: T4, Protein cereblon/Interleukin-1 receptor-associated kinase 3; experiment: Protac activity at CRBN/IRAK3 in LPS-induced human THP1 cells assessed as induction of IRAK3 degradation after 16 hrs by Western blot analysis relative to control; assay type: cell-based; conditions: THP-1
Target sequence in this assay (Q96SW2 whole entry, looked up, one chain of several): as above

[9] = molecular target: T4, Protein cereblon/Interleukin-1 receptor-associated kinase 3; experiment: Protac activity at CRBN/IRAK3 in LPS-induced human THP1 cells assessed as induction of IRAK3 degradation after 16 hrs by Western blot analysis; assay type: cell-based; conditions: thp-1
Target sequence in this assay (Q96SW2 whole entry, one chain of several): as the sequence (Q96SW2 whole entry, looked up, one chain of several) above

[10] = molecular target: Interleukin-1 receptor-associated kinase 1 (Homo sapiens, UniProt P51617); experiment: Inhibition of recombinant human N-terminal GST-tagged IRAK1 (194 to 712 residues) expressed in baculovirus expression system using 5-FAM-KKKVSRSGLYRSPSMPENLNRPR-COOH as substrate measured after 240 mins by mobility shift assay
Interleukin-1 receptor-associated kinase 1, sequence (P51617 whole entry, the tested form may be a part): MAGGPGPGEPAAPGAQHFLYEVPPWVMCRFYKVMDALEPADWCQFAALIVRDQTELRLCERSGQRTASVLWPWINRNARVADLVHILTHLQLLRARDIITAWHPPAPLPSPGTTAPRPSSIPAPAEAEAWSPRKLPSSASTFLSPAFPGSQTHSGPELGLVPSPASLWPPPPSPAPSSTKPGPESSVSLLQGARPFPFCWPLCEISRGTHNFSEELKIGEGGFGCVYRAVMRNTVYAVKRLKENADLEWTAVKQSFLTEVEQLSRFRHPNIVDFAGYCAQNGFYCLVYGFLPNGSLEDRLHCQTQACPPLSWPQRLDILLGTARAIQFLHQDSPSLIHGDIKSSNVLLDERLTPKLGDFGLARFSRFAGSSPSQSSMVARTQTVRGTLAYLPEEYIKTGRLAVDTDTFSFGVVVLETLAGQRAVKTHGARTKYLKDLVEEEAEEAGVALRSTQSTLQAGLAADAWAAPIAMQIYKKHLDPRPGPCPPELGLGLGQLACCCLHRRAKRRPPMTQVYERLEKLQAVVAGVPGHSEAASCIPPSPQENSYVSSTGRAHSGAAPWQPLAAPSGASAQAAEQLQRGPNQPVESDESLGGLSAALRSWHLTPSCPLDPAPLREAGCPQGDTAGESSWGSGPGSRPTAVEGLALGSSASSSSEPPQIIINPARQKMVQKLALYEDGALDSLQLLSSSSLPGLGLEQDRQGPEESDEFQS

Protein cereblon = Protein cereblon (Homo sapiens, UniProt Q96SW2); experiment: Inhibition of CRBN (unknown origin)
Protein cereblon, sequence (Q96SW2 whole entry): as the sequence (Q96SW2 whole entry, looked up, one chain of several) above

| SMILES | pIC50 [1] | Activity [2] [%] | Activity [3] [%] | logD [4] | pIC50 [5] | Activity [6] [%] | Activity [7] [%] | Emax [8] [%] | DC50 [9] [nM] | pIC50 [10] | pIC50 (Protein cereblon) |
| --- | --- | --- | --- | --- | --- | --- | --- | --- | --- | --- | --- |
| Cc1ncsc1-c1ccc(CNC(=O)[C@@H]2C[C@@H](O)CN2C(=O)[C@@H](NC(=O)COCCOCCOCCOCC(=O)N2CCN([C@H]3CC[C@@H](Nc4ncnn5ccc(C(C)C)c45)CC3)CC2)C(C)(C)C)cc1 | < 5.00 | 62 | 25 | 3.2 | 7.68 | – | – | – | – | – | – |
| CC(C)c1ccn2ncnc(N[C@H]3CC[C@@H](N4CCN(C(=O)CCC(=O)NCCCCNc5cccc6c5C(=O)N(C5CCC(=O)NC5=O)C6=O)CC4)CC3)c12 (stereo partly specified) | < 6.00 | – | – | 2.9 | 7.89 | 0 | 0 | – | – | – | – |
| Cc1ncsc1-c1ccc(CNC(=O)[C@@H]2C[C@@H](O)CN2C(=O)[C@@H](NC(=O)CCCNC(=O)CCC(=O)N2CCN([C@H]3CC[C@@H](Nc4ncnn5ccc(C(C)C)c45)CC3)CC2)C(C)(C)C)cc1 | < 6.00 | 0 | 0 | 3.7 | 7.82 | – | – | – | – | – | – |
| Cc1ncsc1-c1ccc(CNC(=O)[C@@H]2C[C@@H](O)CN2C(=O)[C@@H](NC(=O)COCCOCCOCCOCCNC(=O)CCC(=O)N2CCN([C@H]3CC[C@@H](Nc4ncnn5ccc(C(C)C)c45)CC3)CC2)C(C)(C)C)cc1 | < 6.00 | 0 | 0 | 3 | 7.72 | – | – | – | – | – | – |
| CC(C)c1ccn2ncnc(N[C@H]3CC[C@@H](N4CCN(C(=O)CCC(=O)NCCCCCCNc5cccc6c5C(=O)N(C5CCC(=O)NC5=O)C6=O)CC4)CC3)c12 (stereo partly specified) | 5.59 | – | – | 3.7 | 7.68 | 0 | 0 | – | – | – | – |
| CC(C)c1ccn2ncnc(N[C@H]3CC[C@@H](N4CCN(C(=O)CCOCCOCCOCCOCCNc5cccc6c5C(=O)N(C5CCC(=O)NC5=O)C6=O)CC4)CC3)c12 (stereo partly specified) | < 5.00 | – | – | 2.2 | 7.30 | 27 | 48 | – | – | – | – |
| Cc1ncsc1-c1ccc(CNC(=O)[C@@H]2C[C@@H](O)CN2C(=O)[C@@H](NC(=O)COCCOCCOCCNC(=O)CCC(=O)N2CCN([C@H]3CC[C@@H](Nc4ncnn5ccc(C(C)C)c45)CC3)CC2)C(C)(C)C)cc1 | < 6.00 | 0 | 0 | 3.1 | 7.60 | – | – | – | – | – | – |
| Cc1ncsc1-c1ccc(CNC(=O)[C@@H]2C[C@@H](O)CN2C(=O)[C@@H](NC(=O)COCCOCCNC(=O)CCC(=O)N2CCN([C@H]3CC[C@@H](Nc4ncnn5ccc(C(C)C)c45)CC3)CC2)C(C)(C)C)cc1 | < 5.00 | 20 | 0 | 3.3 | 7.62 | – | – | – | – | – | – |
| Cc1ncsc1-c1ccc(CNC(=O)[C@@H]2C[C@@H](O)CN2C(=O)[C@@H](NC(=O)CCCCCCNC(=O)CCC(=O)N2CCN([C@H]3CC[C@@H](Nc4ncnn5ccc(C(C)C)c45)CC3)CC2)C(C)(C)C)cc1 | < 6.00 | 0 | 0 | > 3 | 8.22 | – | – | – | – | – | – |
| CC(=O)N1CCN([C@H]2CC[C@H](Nc3ncnn4ccc(C(C)C)c34)CC2)CC1 | – | – | – | – | 7.51 | – | – | – | – | – | – |
| Cc1ncsc1-c1ccc(CNC(=O)[C@@H]2C[C@@H](O)CN2C(=O)[C@@H](NC(=O)COCCOCCOCCOCCOCC(=O)N2CCN([C@H]3CC[C@@H](Nc4ncnn5ccc(C(C)C)c45)CC3)CC2)C(C)(C)C)cc1 | – | 67 | 21 | – | 7.29 | – | – | – | – | – | – |
| CC(C)c1ccn2ncnc(N[C@H]3CC[C@@H](N4CCN(C(=O)CCC(=O)NCCOCCOCCNc5cccc6c5C(=O)N(C5CCC(=O)NC5=O)C6=O)CC4)CC3)c12 (stereo partly specified) | 5.31 | – | – | 2.3 | 8.00 | 13 | 17 | – | – | – | – |
| CC(C)c1ccn2ncnc(N[C@H]3CC[C@@H](N4CCN(C(=O)CCOCCOCCOCCNc5cccc6c5C(=O)N(C5CCC(=O)NC5=O)C6=O)CC4)CC3)c12 (stereo partly specified) | 5.11 | – | – | 2.3 | 7.47 | 21 | 24 | – | – | – | – |
| CC(C)c1ccn2ncnc(N[C@H]3CC[C@@H](N4CCN(C(=O)CCC(=O)NCCOCCOCCOCCNc5cccc6c5C(=O)N(C5CCC(=O)NC5=O)C6=O)CC4)CC3)c12 (stereo partly specified) | < 6.00 | – | – | 2.1 | 7.68 | 34 | 42 | – | – | – | – |
| CC(C)c1ccn2ncnc(N[C@H]3CC[C@@H](N4CCN(C(=O)CCC(=O)NCCOCCOCCOCCOCCNc5cccc6c5C(=O)N(C5CCC(=O)NC5=O)C6=O)CC4)CC3)c12 (stereo partly specified) | < 6.00 | – | – | 2 | 7.66 | 55 | 85 | – | – | – | – |
| CC(C)c1ccn2ncnc(N[C@H]3CC[C@@H](N4CCN(C(=O)CCOCCOCCOCCOCCOCCNc5cccc6c5C(=O)N(C5CCC(=O)NC5=O)C6=O)CC4)CC3)c12 (stereo partly specified) | < 5.00 | – | – | 2.1 | 7.48 | 49 | 78 | – | – | – | – |
| CC(C)c1ccn2ncnc(N[C@H]3CC[C@@H](N4CCN(C(=O)CCC(=O)N5CCC(CN6CCN(c7ccc8c(c7)C(=O)N(C7CCC(=O)NC7=O)C8=O)CC6)CC5)CC4)CC3)c12 (stereo partly specified) | 5.25 | – | – | 3.1 | 8.22 | – | – | 74 | 52 | 5.25 | 5.92 |
| Cc1ncsc1-c1ccc(CNC(=O)[C@@H]2C[C@@H](O)CN2C(=O)[C@@H](NC(=O)COCCOCCOCCOCCOCCOCC(=O)N2CCN([C@H]3CC[C@@H](Nc4ncnn5ccc(C(C)C)c45)CC3)CC2)C(C)(C)C)cc1 | < 5.00 | 43 | 20 | 2.8 | 7.48 | – | – | – | – | – | – |
